Assay results reported in the NIST ThermoML archive (doi:10.1016/j.fluid.2016.11.031).
Numbers after ± are expanded uncertainties.

Experiment: molar heat capacity at constant pressure
Details: Liquid, Flow calorimetry

Question: Which results are given for `C1C[C@@H]2[C@H]3CC[C@H](C3)[C@@H]2C1` [exo-tetrahydrodicyclopentadiene]?
Answer: molar heat capacity at constant pressure (323.34 K, 100 kPa): 219.49 ± 2.2 J/K/mol; molar heat capacity at constant pressure (323.34 K, 4000 kPa): 218.3 ± 2.2 J/K/mol; molar heat capacity at constant pressure (323.34 K, 5020 kPa): 218.14 ± 2.2 J/K/mol; molar heat capacity at constant pressure (323.35 K, 3070 kPa): 218.8 ± 2.2 J/K/mol; molar heat capacity at constant pressure (323.35 K, 6080 kPa): 217.34 ± 2.2 J/K/mol; molar heat capacity at constant pressure (323.37 K, 1030 kPa): 219.39 ± 2.2 J/K/mol; molar heat capacity at constant pressure (323.37 K, 2050 kPa): 218.99 ± 2.2 J/K/mol; molar heat capacity at constant pressure (333.16 K, 3990 kPa): 223.29 ± 2.3 J/K/mol; molar heat capacity at constant pressure (333.17 K, 5040 kPa): 223.42 ± 2.3 J/K/mol; molar heat capacity at constant pressure (333.17 K, 5990 kPa): 223.32 ± 2.3 J/K/mol; molar heat capacity at constant pressure (333.2 K, 100 kPa): 224.4 ± 2.3 J/K/mol; molar heat capacity at constant pressure (333.2 K, 1070 kPa): 224.39 ± 2.3 J/K/mol; molar heat capacity at constant pressure (333.2 K, 3000 kPa): 223.84 ± 2.3 J/K/mol; molar heat capacity at constant pressure (333.21 K, 2020 kPa): 224.41 ± 2.3 J/K/mol; molar heat capacity at constant pressure (343.01 K, 100 kPa): 230.29 ± 2.3 J/K/mol; molar heat capacity at constant pressure (343.03 K, 1090 kPa): 230.02 ± 2.3 J/K/mol; molar heat capacity at constant pressure (343.06 K, 2070 kPa): 229.6 ± 2.3 J/K/mol; molar heat capacity at constant pressure (343.06 K, 3060 kPa): 229 ± 2.3 J/K/mol; molar heat capacity at constant pressure (343.09 K, 4000 kPa): 229.5 ± 2.3 J/K/mol; molar heat capacity at constant pressure (343.09 K, 5030 kPa): 228.72 ± 2.3 J/K/mol; molar heat capacity at constant pressure (343.09 K, 6000 kPa): 229.08 ± 2.3 J/K/mol; molar heat capacity at constant pressure (353.59 K, 100 kPa): 234.98 ± 2.4 J/K/mol; molar heat capacity at constant pressure (353.59 K, 4080 kPa): 234.11 ± 2.4 J/K/mol; molar heat capacity at constant pressure (353.59 K, 5070 kPa): 234.17 ± 2.4 J/K/mol; molar heat capacity at constant pressure (353.6 K, 6090 kPa): 233.83 ± 2.4 J/K/mol; molar heat capacity at constant pressure (353.61 K, 1080 kPa): 234.61 ± 2.4 J/K/mol; molar heat capacity at constant pressure (353.61 K, 2010 kPa): 234.35 ± 2.4 J/K/mol; molar heat capacity at constant pressure (353.62 K, 3070 kPa): 234.12 ± 2.4 J/K/mol; molar heat capacity at constant pressure (363.48 K, 100 kPa): 240.37 ± 2.4 J/K/mol; molar heat capacity at constant pressure (363.53 K, 1070 kPa): 240.28 ± 2.4 J/K/mol; molar heat capacity at constant pressure (363.53 K, 2030 kPa): 240.09 ± 2.4 J/K/mol; molar heat capacity at constant pressure (363.53 K, 2990 kPa): 239.97 ± 2.4 J/K/mol; molar heat capacity at constant pressure (363.54 K, 4080 kPa): 239.88 ± 2.4 J/K/mol; molar heat capacity at constant pressure (363.54 K, 5000 kPa): 239.76 ± 2.4 J/K/mol; molar heat capacity at constant pressure (363.55 K, 6020 kPa): 239.67 ± 2.4 J/K/mol; molar heat capacity at constant pressure (383.58 K, 3060 kPa): 248.68 ± 2.5 J/K/mol; molar heat capacity at constant pressure (383.58 K, 4010 kPa): 248.49 ± 2.5 J/K/mol; molar heat capacity at constant pressure (383.59 K, 5070 kPa): 248.39 ± 2.5 J/K/mol; molar heat capacity at constant pressure (383.6 K, 100 kPa): 249.31 ± 2.5 J/K/mol; molar heat capacity at constant pressure (383.6 K, 1000 kPa): 248.82 ± 2.5 J/K/mol; molar heat capacity at constant pressure (383.6 K, 5990 kPa): 248.35 ± 2.5 J/K/mol; molar heat capacity at constant pressure (383.61 K, 2020 kPa): 248.8 ± 2.5 J/K/mol; molar heat capacity at constant pressure (403.36 K, 100 kPa): 260.34 ± 2.6 J/K/mol; molar heat capacity at constant pressure (403.36 K, 1020 kPa): 259.74 ± 2.6 J/K/mol; molar heat capacity at constant pressure (403.37 K, 2060 kPa): 259.23 ± 2.6 J/K/mol; molar heat capacity at constant pressure (403.38 K, 3040 kPa): 258.89 ± 2.6 J/K/mol; molar heat capacity at constant pressure (403.38 K, 4010 kPa): 257.41 ± 2.6 J/K/mol; molar heat capacity at constant pressure (403.39 K, 5000 kPa): 256.93 ± 2.6 J/K/mol; molar heat capacity at constant pressure (403.4 K, 6070 kPa): 256.62 ± 2.6 J/K/mol; molar heat capacity at constant pressure (423.2 K, 1020 kPa): 271.44 ± 2.7 J/K/mol; molar heat capacity at constant pressure (423.2 K, 2050 kPa): 270.28 ± 2.7 J/K/mol; molar heat capacity at constant pressure (423.2 K, 3010 kPa): 268.73 ± 2.7 J/K/mol; molar heat capacity at constant pressure (423.21 K, 100 kPa): 271.95 ± 2.8 J/K/mol; molar heat capacity at constant pressure (423.25 K, 4020 kPa): 267.73 ± 2.7 J/K/mol; molar heat capacity at constant pressure (423.26 K, 4980 kPa): 267.54 ± 2.7 J/K/mol; molar heat capacity at constant pressure (423.27 K, 6000 kPa): 266.96 ± 2.7 J/K/mol; molar heat capacity at constant pressure (443.11 K, 3110 kPa): 282.78 ± 2.9 J/K/mol; molar heat capacity at constant pressure (443.13 K, 2050 kPa): 283.43 ± 2.9 J/K/mol; molar heat capacity at constant pressure (443.14 K, 1030 kPa): 284.05 ± 2.9 J/K/mol; molar heat capacity at constant pressure (443.15 K, 240 kPa): 284.8 ± 2.9 J/K/mol; molar heat capacity at constant pressure (443.17 K, 4060 kPa): 282.05 ± 2.9 J/K/mol; molar heat capacity at constant pressure (443.18 K, 6050 kPa): 280.75 ± 2.8 J/K/mol; molar heat capacity at constant pressure (443.19 K, 5030 kPa): 281.38 ± 2.8 J/K/mol; molar heat capacity at constant pressure (463.16 K, 2040 kPa): 298.88 ± 3 J/K/mol; molar heat capacity at constant pressure (463.17 K, 230 kPa): 301.77 ± 3 J/K/mol; molar heat capacity at constant pressure (463.18 K, 1060 kPa): 300.31 ± 3 J/K/mol; molar heat capacity at constant pressure (463.19 K, 4070 kPa): 297.53 ± 3 J/K/mol; molar heat capacity at constant pressure (463.2 K, 3000 kPa): 299.41 ± 3 J/K/mol; molar heat capacity at constant pressure (463.21 K, 5010 kPa): 297.44 ± 3 J/K/mol; molar heat capacity at constant pressure (463.22 K, 6020 kPa): 296.56 ± 3 J/K/mol; molar heat capacity at constant pressure (483.31 K, 2050 kPa): 316.76 ± 3.2 J/K/mol; molar heat capacity at constant pressure (483.32 K, 3040 kPa): 315.54 ± 3.2 J/K/mol; molar heat capacity at constant pressure (483.37 K, 4030 kPa): 315.19 ± 3.2 J/K/mol; molar heat capacity at constant pressure (483.37 K, 6060 kPa): 314.11 ± 3.2 J/K/mol; molar heat capacity at constant pressure (483.38 K, 5080 kPa): 314.31 ± 3.2 J/K/mol; molar heat capacity at constant pressure (483.39 K, 1020 kPa): 319.24 ± 3.2 J/K/mol; molar heat capacity at constant pressure (483.42 K, 470 kPa): 321.27 ± 3.2 J/K/mol; molar heat capacity at constant pressure (503.28 K, 1020 kPa): 336.59 ± 3.4 J/K/mol; molar heat capacity at constant pressure (503.28 K, 2040 kPa): 334.35 ± 3.4 J/K/mol; molar heat capacity at constant pressure (503.28 K, 3050 kPa): 333.03 ± 3.4 J/K/mol; molar heat capacity at constant pressure (503.29 K, 4090 kPa): 330.6 ± 3.3 J/K/mol; molar heat capacity at constant pressure (503.29 K, 5070 kPa): 331.61 ± 3.4 J/K/mol; molar heat capacity at constant pressure (503.3 K, 480 kPa): 338.7 ± 3.4 J/K/mol; molar heat capacity at constant pressure (503.3 K, 6000 kPa): 331.5 ± 3.4 J/K/mol; molar heat capacity at constant pressure (523.44 K, 3010 kPa): 348.07 ± 3.5 J/K/mol; molar heat capacity at constant pressure (523.45 K, 1030 kPa): 352.98 ± 3.6 J/K/mol; molar heat capacity at constant pressure (523.45 K, 2060 kPa): 350.7 ± 3.5 J/K/mol; molar heat capacity at constant pressure (523.47 K, 500 kPa): 355.43 ± 3.6 J/K/mol; molar heat capacity at constant pressure (523.49 K, 5040 kPa): 345.42 ± 3.5 J/K/mol; molar heat capacity at constant pressure (523.49 K, 6180 kPa): 344.08 ± 3.5 J/K/mol; molar heat capacity at constant pressure (523.5 K, 4000 kPa): 346.42 ± 3.5 J/K/mol
